Reference: US20240316042A1 (AbbVie Inc., priority 2023, published 2024)
Converted amounts (≈) assume the structure as drawn. Read-outs that look alike come from different tables or passages of the source.

Key:
[1] = Phase 1 open-label study in pediatric pcJIA patients: pharmacokinetics at steady state (Day 7); assay type: in vivo, human; conditions: for AUC / half-life: human, plasma, oral; for AUC / half-life / AUC0-24, geometric mean / CLss/F, geometric mean / CLss/F_adjusted (adjusted for bioavailability), geometric mean: Day 7; for AUC: read-out: AUCtau, geometric mean; for half-life: read-out: Functional t1/2, harmonic mean (converted)
Method: (§1) Part 1 was a multiple-dose, open-label, multiple-cohort study. Two sequential multiple-ascending dose levels (Low Dose and High Dose levels) were evaluated in the 12 to <18 years age group (Group 1), and one dose level (Low Dose) was evaluated in the two younger age groups (Group 2: 6 to <12 years, and Group 3: 2 to <6 years). Low Dose and High Dose cohorts in age group 1 enrolled 9 subjects each.
(§2) The study enrolled at least 10 subjects below 30 kg. Recruitment of subjects was conducted through a staggered approach based on age. […] Part 3 was an additional safety cohort. […] Part 3 was open to age groups in which Part I enrollment was completed. […] Doses were adjusted during the study for any of the body weight categories after review of results from the subjects who completed Study Part 1.
In Part 1, the dose was administered according to three body weight categories. Subjects were categorized based on age group, and the dose administered for seven consecutive days will be based on three different body weight categories per dose level shown in Table 2.
Patients (N=51) diagnosed with pcJIA were enrolled into one of four groups in an open-label, multiple-dose study (Group 1, 12 to <18 years, low dose; Group 2, 12 to <18 years, high dose; Group 3, 6 to <12 years, low dose; Group 4, 2 to <6 years, low dose). […] Pharmacokinetic assessment was performed at steady state on Study Day 7, after which all patients might continue the study with low dose.

[2] = Phase 1 open-label study in pediatric subjects with severe atopic dermatitis: pharmacokinetics on Day 7; assay type: in vivo, human; conditions: for half-life / Cmax: human, plasma, oral; for half-life: read-out: t1/2, harmonic mean (pseudo standard deviation) (converted)
Method: (§3) This was an open-label, multiple-dose study. AD patients (N=35) were enrolled into four cohorts (Cohort 1, 6 to <12 years with low dose; Cohort 2, 6 to <12 years with high dose; Cohort 3, 2 to <6 years with low dose; Cohort 4, 2 to <6 years with high dose). […] PK was evaluated on Day 7 post first dose. Safety was evaluated throughout the study. Exploratory efficacy parameters were collected at specified timepoints.
(§4) Part 1 was a multiple-dose, open-label, multiple-cohort study that consisted of two sequential multiple-ascending dose groups (Low Dose and High Dose levels) in the two age groups. (Group 1: 6 to <12 years and Group 2: 2 to <6 years).
There was one additional subject who was enrolled in Cohort 3 but withdrew informed consent before PK assessment. This subject was therefore not included in PK analyses.

[3] = system: pediatric subjects with severe atopic dermatitis; assay: Phase 1 open-label study in pediatric subjects with severe atopic dermatitis: efficacy (vIGA-AD, EASI); assay type: in vivo, human; conditions: Week 12 (as observed)
Method: as §3
During Part 2 of the study, concomitant topical medications for AD were allowed during the study per investigator discretion.
No formal statistical comparisons were planned.

[4] = Solubility of upadacitinib in different aqueous media at 37° C.; assay type: physicochemical; conditions: 50 mM carbonate buffer, pH 9.11
From the text: For pediatric use, an oral solution was developed to improve acceptability (palatability and swallowability), stability, and manufacturability. […] Thus, low pH buffers such as citrate, phosphate, tartrate, and formate are suitable to prepare the oral solution. […] Citrate buffer was selected because it has favorable pKa (˜3.1), which is close to the final pH of the oral solution.

[5] = system: pediatric patients with pcJIA; assay: Phase 1 open-label study in pediatric pcJIA patients: safety (adverse events)
Method: as §1, §2
This was an interim analysis.
(§5) This interim analysis includes all available pharmacokinetic and safety data and efficacy data collected through Week 48, excluding patients enrolled in the long-term safety cohort.

[6] = system: pediatric subjects with severe atopic dermatitis; assay: Phase 1 open-label study in pediatric subjects with severe atopic dermatitis: safety
Method: as §3, §4

[7] = system: pediatric patients with pcJIA; assay: Phase 1 open-label study in pediatric pcJIA patients: efficacy (JIA ACR, JADAS-27, C-HAQ);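 further: values come from an interim analysis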
Method: Based on these parameters, the following composite efficacy endpoints were evaluated: • JIA ACR pediatric 30/50/70/90/100 responses • Change from Baseline in JADAS10/27/71 responses, as well as JADAS-based criteria for low disease activity and remission (if deemed useful and appropriate).
This was an interim analysis.
as §5

[8] = Population pharmacokinetic analyses of upadacitinib exposure in adults / adult RA patients; conditions: for median average plasma exposure over a dosing interval: adult RA patients; for AUC0-24 at steady state, model-estimated: adults
Method: In Part 1, the dose was administered according to three body weight categories.
The doses selected for this study account for the difference in oral bioavailability between the extended-release tablet formulation and the oral solution. […] Doses were adjusted during the study for any of the body weight categories after review of results from the subjects who completed Part 1.

[9] = pcJIA Group 3: 6 to <12 years, low dose, BID solution
[10] = pcJIA Group 4: 2 to <6 years, low dose, BID solution
[11] = pcJIA Group 1: 12 to <18 years, low dose, QD tablet
[12] = pcJIA Group 2: 12 to <18 years, high dose, QD tablet
[13] = pcJIA Group 3: 6 to <12 years, low dose, QD tablet
[14] = pcJIA Group 3: 6 to <12 years, low dose, tablet and solution combined
[15] = AD Cohort 1: 6 to <12 years, Low Dose, IR Solution, Day 7
[16] = AD Cohort 2: 6 to <12 years, High Dose, ER Tablet, Day 7
[17] = AD Cohort 2: 6 to <12 years, High Dose, IR Solution, Day 7
[18] = AD Cohort 3: 2 to <6 years, Low Dose, IR Solution, Day 7
[19] = AD Cohort 4: 2 to <6 years, High Dose, IR Solution, Day 7
[20] = Enrollment on or after protocol v4.0, N 7
[21] = Enrollment up to protocol v3.0, N 20

Question: What does the source list for `CC[C@@H]1CN(C(=O)NCC(F)(F)F)C[C@@H]1c1cnc2cnc3[nH]ccc3n12` [upadacitinib, (3S,4R)-3-ethyl-4-(3H-imidazo[1,2-a]pyrrolo[2,3-e]pyrazin-8-yl)-N-(2,2,2-trifluoroethyl)pyrrolidine-1-carboxamide]?
Answer: AUC [1, 9]: 198 ng·h/mL; half-life [1, 9]: 143 min; AUC [1, 10]: 184 ng·h/mL; half-life [1, 10]: 140 min; Median AUC0-24 ([1]; pcJIA Group 1 (12 to <18 years), low-dose level): 278 ng·h/mL; AUC0-24, geometric mean [1, 11]: 269 ng·h/mL; CLss/F, geometric mean [1, 11]: 55.7 L/h; CLss/F_adjusted (adjusted for bioavailability), geometric mean [1, 11]: 38.1 L/h; Median AUC0-24 ([1]; pcJIA Group 2 (12 to <18 years), high-dose level): 547 ng·h/mL; AUC0-24, geometric mean [1, 12]: 553 ng·h/mL; CLss/F, geometric mean [1, 12]: 46.5 L/h; CLss/F_adjusted (adjusted for bioavailability), geometric mean [1, 12]: 31.8 L/h; CLss/F_adjusted (adjusted for bioavailability), geometric mean [1, 9]: 19.7 L/h; AUC0-24, geometric mean [1, 13]: 318 ng·h/mL; CLss/F, geometric mean [1, 13]: 41.6 L/h; CLss/F_adjusted (adjusted for bioavailability), geometric mean [1, 13]: 28.5 L/h; AUC0-24, geometric mean [1, 14]: 346 ng·h/mL; CLss/F_adjusted (adjusted for bioavailability), geometric mean [1, 14]: 24.7 L/h; Median AUC0-24 ([1]; pcJIA Group 4 (2 to <6 years), low-dose level): 360 ng·h/mL; CLss/F_adjusted (adjusted for bioavailability), geometric mean [1, 10]: 15.0 L/h; apparent oral clearance in relation to bodyweight ([1]; pcJIA patients): increased in pcJIA patients with increasing bodyweight; CLss/F, geometric mean (mean, % CV) ([2]; AD Cohort 1: 6 to <12 years, Low Dose, ER Tablet, Day 7): 31.5 (34.2, 48) L/h; CLss/F, geometric mean (mean, % CV) [2, 15]: 19.3 (20.2, 31) L/h; CLss/F, geometric mean (mean, % CV) [2, 16]: 39.1 (42.3, 37) L/h; CLss/F, geometric mean (mean, % CV) [2, 17]: 23.0 (23.6, 27) L/h; CLss/F, geometric mean (mean, % CV) [2, 18]: 15.6 (18.6, 52) L/h; CLss/F, geometric mean (mean, % CV) [2, 19]: 20.7 (23.6, 66) L/h; half-life [2, 15]: 141 min; half-life [2, 16]: 296 min; half-life [2, 17]: 101 min; Cmax ([2]; AD Cohort 2: 6 to <12 years, high dose, Day 7 (Example 4), read-out: Geometric mean Cmax at steady-state): 95.5 ng/mL; half-life [2, 18]: 100 min; Cmax ([2]; AD Cohort 4: 2 to <6 years, High Dose, IR Solution, Day 7, read-out: Cmax, geometric mean (mean, % CV)): 96.9 ng/mL; half-life [2, 19]: 135 min; Cmax ([2]; AD Cohort 4: 2 to <6 years, high dose, Day 7 (Example 4), read-out: Geometric mean Cmax at steady-state): 101 ng/mL; EASI 75, Responder ([3]; Age 2 to <6 years, N 12): 9 (75.0) n (%); vIGA-AD of 0 or 1 with at least two grades of reduction from baseline, Responder ([3]; Age 2 to <6 years, N 12): 3 (25.0) n (%); EASI 75, Responder ([3]; Age 6 to <12 years, N 15): 10 (66.7) n (%); vIGA-AD of 0 or 1 with at least two grades of reduction from baseline, Responder ([3]; Age 6 to <12 years, N 15): 6 (40.0) n (%); EASI 75, Responder [3, 20]: 7 (100) n (%); vIGA-AD of 0 or 1 with at least two grades of reduction from baseline, Responder [3, 20]: 3 (42.9) n (%); EASI 75, Responder [3, 21]: 12 (60.0) n (%); vIGA-AD of 0 or 1 with at least two grades of reduction from baseline, Responder [3, 21]: 6 (30.0) n (%); EASI 75, Responder ([3]; Overall, N 27): 19 (70.4) n (%); vIGA-AD of 0 or 1 with at least two grades of reduction from baseline, Responder ([3]; Overall, N 27): 9 (33.3) n (%); solubility [4]: 199 ± 6 µg/mL (≈ 523 µM); patients reporting serious AEs or AEs leading to treatment discontinuation ([5]; pcJIA part 1, through 7 days): no patients; patients reporting adverse events (AEs) ([5]; pcJIA part 1, through 7 days, 8 out of 51 patients): 15.7%; patients reporting AEs ([5]; pcJIA part 2 and part 3, 52 out of 57 patients): 91.2%; AE of special interest: neutropenia ([5]; pcJIA part 2 and part 3, n=2/57): 3.5%; AE of special interest: hepatic disorder ([5]; pcJIA part 2 and part 3, n=3/57): 5.3%; AE of special interest: elevated creatine phosphokinase ([5]; pcJIA part 2 and part 3, n=6/57): 10.5%; patients reporting AEs leading to treatment discontinuation ([5]; pcJIA, 12 to <18 years of age group, 2 of 19): 10.5%; patients reporting serious AEs ([5]; pcJIA, 12 to <18 years of age group, six out of 19): 31.6%; uveitis events ([5]; pcJIA, during the study): no uveitis events occurred; deaths ([5]; pcJIA, interim analysis): No deaths occurred; overall safety and tolerability ([5]; pediatric patients with pcJIA): safe and well tolerated; discontinuation of upadacitinib due to adverse event ([6]; AD Part 2, n=3): 9.7%; most common AEs ([6]; children with severe AD): COVID infection, headache, and abdominal discomfort; new safety risks compared to the known safety profile ([6]; children with severe AD): No new safety risks were identified; overall safety and tolerability ([6]; children with severe AD): generally safe and well tolerated; C-HAQ, Change from Baseline Mean ([…]% CI) ([7]; Week 12, Overall): −0.45 (−0.63, −0.27); C-HAQ, Change from Baseline Median (Min, Max) ([7]; Week 12, Overall): −0.38 (−1.9, 1.1); ESR, Change from Baseline Median (Min, Max) ([7]; Week 12, Overall): −4.0 (−41, 26) ^; Patient/Parent Global Assessment of Overall Well Being (VAS), Change from Baseline Median (Min, Max) ([7]; Week 12, Overall): −26.0 (−81, 37) ^; Physician's Global Assessment of Disease Activity (VAS), Change from Baseline Median (Min, Max) ([7]; Week 12, Overall): −49.0 (−100, 9) ^; Total Number of Active Joints, Change from Baseline Median (Min, Max) ([7]; Week 12, Overall): −8.0 (−25, 0) ^; C-HAQ, Change from Baseline Mean ([…]% CI) ([7]; Week 12, age 2 to <6 years): −0.31 (−0.77, 0.15); C-HAQ, Change from Baseline Median (Min, Max) ([7]; Week 12, age 2 to <6 years): −0.38 (−1.3, 1.1); ESR, Change from Baseline Median (Min, Max) ([7]; Week 12, age 2 to <6 years): −7.0 (−39, 2) ^; Patient/Parent Global Assessment of Overall Well Being (VAS), Change from Baseline Median (Min, Max) ([7]; Week 12, age 2 to <6 years): −38.0 (−81, 37) ^; Physician's Global Assessment of Disease Activity (VAS), Change from Baseline Median (Min, Max) ([7]; Week 12, age 2 to <6 years): −49.0 (−72, −25); Total Number of Active Joints, Change from Baseline Median (Min, Max) ([7]; Week 12, age 2 to <6 years): −6.0 (−12, −3); C-HAQ, Change from Baseline Mean ([…]% CI) ([7]; Week 12, age 6 to <12 years): −0.64 (−0.95, −0.34); C-HAQ, Change from Baseline Median (Min, Max) ([7]; Week 12, age 6 to <12 years): −0.38 (−1.9, 1.1); ESR, Change from Baseline Median (Min, Max) ([7]; Week 12, age 6 to <12 years): −4.0 (−41, 7) ^; Patient/Parent Global Assessment of Overall Well Being (VAS), Change from Baseline Median (Min, Max) ([7]; Week 12, age 6 to <12 years): −29.0 (−61, 9) ^; Physician's Global Assessment of Disease Activity (VAS), Change from Baseline Median (Min, Max) ([7]; Week 12, age 6 to <12 years): −55.0 (−100, −28); Total Number of Active Joints, Change from Baseline Median (Min, Max) ([7]; Week 12, age 6 to <12 years): −8.0 (−24, −4); C-HAQ, Change from Baseline Mean ([…]% CI) ([7]; Week 12, age 12 to <18 years): −0.33 (−0.58, −0.09); C-HAQ, Change from Baseline Median (Min, Max) ([7]; Week 12, age 12 to <18 years): −0.31 (−1.1, 0.5); ESR, Change from Baseline Median (Min, Max) ([7]; Week 12, age 12 to <18 years): −2.5 (−17, 26) ^; Patient/Parent Global Assessment of Overall Well Being (VAS), Change from Baseline Median (Min, Max) ([7]; Week 12, age 12 to <18 years): −23.0 (−45, 8) ^; Physician's Global Assessment of Disease Activity (VAS), Change from Baseline Median (Min, Max) ([7]; Week 12, age 12 to <18 years): −41.0 (−94, 9) ^; Total Number of Active Joints, Change from Baseline Median (Min, Max) ([7]; Week 12, age 12 to <18 years): −9.0 (−25, 0) ^; median average plasma exposure over a dosing interval ([8]; 15 mg QD extended-release formulation): 15.1 ng/mL; median average plasma exposure over a dosing interval ([8]; 30 mg QD extended-release formulation): 30.0 ng/mL; Median AUC0-24 at steady state (5th, 95th percentile) ([8]; adult patients with RA, phase 3 trials, 15 mg ER tablet daily): 358 (234, 701) ng·h/mL; AUC0-24 at steady state, model-estimated ([8]; multiple 15 mg QD doses): 362 ng·h/mL; AUC0-24 at steady state, model-estimated ([8]; multiple 30 mg QD doses): 720 ng·h/mL
